# Patent US7459477B2, “Substituted N-phenyl-phenoxy nicotinic acid-(thio)amides and their use as herbicides” (Nihon Nohyaku, Co., Ltd., priority 2001, dated 2008)
# Columns and labels:
# Format in all cases: in vivo
# [1] = system: Green Peach Aphid (Myzus Persicae); experiment: Insecticidal effect on green peach aphid (Test Example 4); details: 500 ppm; stems and leaves of Chinese cabbage sprayed; six days after the spraying; greenhouse
# Description: Insecticidal Effect on Green Peach Aphid (Myzus Persicae)
# A Chinese cabbage plant was planted in each of plastic pots with a diameter of 8 cm and a height of 8 cm, and green peach aphids were propagated on the plant. Then, the stems and leaves were sufficiently sprayed with a liquid chemical prepared by diluting a preparation containing each compound listed in Tables 1 to 4 as an active ingredient to adjust the concentration to 500 ppm. After air-drying, the pots were allowed to stand in a greenhouse. Six days after the spraying, green peach aphids parasitic on each Chinese cabbage plant were counted and the control efficacy was calculated, whereby the […] effect was judged according to the criterion shown below. Control efficacy (%)=100−[(T×Ca)/(Ta×C)]×100 • Ta: number of parasites before spraying in treated group, • T: number of parasites after spraying in treated group,
# Ca: number of parasites before spraying in untreated group, • […]: number of parasites after spraying in untreated group. Criterion for Judgment: • A: control efficacy 100% • B: control efficacy 99 to 90% • C: control efficacy 89 to 80% • D: control efficacy 79 to 50%
# [2] = system: Diamond Back Moth (Plutella xylostella); experiment: Insecticidal effect on diamond back moth (Test Example 1); details: 500 ppm; Chinese cabbage seedling with eggs immersed about 30 seconds; six days after the immersion; 25° C.
# Description: Insecticidal Effect on Diamond Back Moth (Plutella xylostella)
# Adult diamond back moths were released and allowed to oviposit on a Chinese cabbage seedling. Two days after the release, the seedling having the eggs deposited thereon was immersed for about 30 seconds in a liquid chemical prepared by diluting a preparation containing each compound listed in Tables 1 to 4 as an active ingredient to adjust the concentration to 500 ppm. After air-dryness, it was allowed to stand in a room thermostatted at 25° C. Six days after the immersion, the hatched insects were counted. The mortality was calculated according to the following equation and the insecticidal effect was judged according to the criterion shown below. The test was carried out with triplicate groups of 10 insects.
# [3] = system: Two-Spotted Spider Mite (Tetranychus Urticae); experiment: Acaricidal effect on two-spotted spider mite (Test Example 3); details: 500 ppm; kidney bean leaf disc with female adults sprayed; two days after the treatment; 25° C.
# Procedure: Acaricidal Effect on Two-Spotted Spider Mite (Tetranychus Urticae)
# A leaf disc with a diameter of 2 cm was made of a kidney bean leaf, placed on wet filter paper, inoculated with female adult two-spotted spider mites, and then uniformly sprayed, on a turntable, with 50 ml of a liquid chemical prepared by diluting a preparation containing each compound listed in Tables 1 to 4 as an active ingredient to adjust the concentration to 500 ppm. After the spraying, the leaf disc was allowed to stand in a room thermostated at 25° C. Two days after the treatment with the preparation, the dead insects were counted and the acaricidal effect was judged according to the criterion shown in Test Example 1. The test was carried out with two replications of 10 insects.
Structure (SMILES),control efficacy rating [1],insecticidal effect (mortality rating) [2],acaricidal effect (mortality rating) [3]
Cc1nn(C)c(I)c1C(=O)Nc1ccc(C(C(F)(F)F)C(F)(F)F)cc1C(C)CC(C)C (stereo not shown) [1-87],B or higher,–,–
CC(C)CC(C)c1cc(C(C(F)(F)F)C(F)(F)F)ccc1NC(=O)c1cccnc1Cl (stereo not shown) [3-4],–,B or higher,–
"Cc1nn(C)c(Cl)c1C(=O)Nc1ccc(C(C(F)(F)F)C(F)(F)F)cc1C(C)CCC(C)C (stereo not shown) [Compound No. 1-146, N-{2-(1,4-dimethylpentyl)-4-[2,2,2-trifluoro-1-(trifluoromethyl)ethyl]phenyl}-5-chloro-1,3-dimethylpyrazole-4-carboxamide]",B or higher,B or higher,B or higher
CC(C)CC(C)c1cc(C(C(F)(F)F)C(F)(F)F)ccc1NC(=O)c1cn(C)nc1Br (stereo not shown) [1-39],–,–,B or higher
Cc1coc(C)c1C(=O)Nc1ccc(C(C(F)(F)F)C(F)(F)F)cc1C(C)CC(C)C (stereo not shown) [3-13],B or higher,–,B or higher
Cc1nn(C)c(Cl)c1C(=O)Nc1ccc(C(F)(C(F)(F)F)C(F)(F)F)cc1C(C)CCC(C)C (stereo not shown) [1-145],–,B or higher,–
CC(C)CC(C)c1cc(C(C(F)(F)F)C(F)(F)F)ccc1NC(=O)c1cnn(C)c1S(C)(=O)=O (stereo not shown) [1-48],–,B or higher,–
CC(C)CC(C)c1cc(C(C(F)(F)F)C(F)(F)F)ccc1NC(=O)c1cn(C(F)F)nc1C(F)(F)F (stereo not shown) [1-33],–,B or higher,–
CCn1ncc(C(=O)Nc2ccc(C(C(F)(F)F)C(F)(F)F)cc2C(C)CC(C)C)c1I (stereo not shown) [1-57],–,B or higher,–
Cc1nn(C)c(Cl)c1C(=O)Nc1ccc(C(C(F)(F)F)C(F)(F)F)cc1-c1ccccc1 [1-20],–,B or higher,–
CCn1nc(C)c(C(=O)Nc2ccc(C(C(F)(F)F)C(F)(F)F)cc2C(C)CC(C)C)c1Cl (stereo not shown) [1-78],–,–,B or higher
Cc1nn(C)c(C)c1C(=O)Nc1ccc(C(F)(C(F)(F)F)C(F)(F)F)c(C)c1C [1-163],–,B or higher,–
CCCn1nc(C)c(C(=O)Nc2ccc(C(C(F)(F)F)C(F)(F)F)cc2C(C)CC(C)C)c1C (stereo not shown) [1-119],–,–,B or higher
CC(C)CC(C)c1cc(C(F)(C(F)(F)F)C(F)(F)F)ccc1NC(=O)c1cn(C)nc1C(F)(F)F (stereo not shown) [1-28],–,B or higher,–
Cc1nn(C)c(C)c1C(=O)Nc1ccc(C(C(F)(F)F)C(F)(F)F)c(C)c1C [1-164],–,B or higher,–
Cc1nn(C)c(Cl)c1C(=O)Nc1ccc(C(F)(C(F)(F)F)C(F)(F)F)cc1C(C)CC(C)C (stereo not shown) [1-70],–,B or higher,–
Cc1nn(C)c(Br)c1C(=O)Nc1ccc(C(C(F)(F)F)C(F)(F)F)cc1C(C)CC(C)C (stereo not shown) [1-81],B or higher,–,B or higher
COC(c1ccc(NC(=O)c2c(C)nn(C)c2Br)c(C(C)CC(C)C)c1)(C(F)(F)F)C(F)(F)F (stereo not shown) [1-82],–,B or higher,B or higher
"COC(c1ccc(NC(=O)c2c(C)nn(C)c2C)c(C(C)CC(C)C)c1)(C(F)(F)F)C(F)(F)F (stereo not shown) [Compound No. 1-108, N-{2-(1,3-dimethylbutyl)-4-[1-methoxy-2,2,2-trifluoro-1-(trifluoromethyl)ethyl]-phenyl}-1,3,5-trimethylpyrazole-4-carboxamide]",–,B or higher,–
CCCC(C)c1cc(C(C(F)(F)F)C(F)(F)F)ccc1NC(=O)c1c(C)nn(C)c1Cl (stereo not shown) [1-22],–,–,B or higher
CCc1nn(C)cc1C(=O)Nc1ccc(C(C(F)(F)F)C(F)(F)F)cc1C(C)CC(C)C (stereo not shown) [1-35],B or higher,B or higher,–
Cc1nn(C)c(C(=O)Nc2ccc(C(C(F)(F)F)C(F)(F)F)cc2C(C)CC(C)C)c1Br (stereo not shown) [4-5],–,B or higher,–
CC(C)CC(C)c1cc(C(C(F)(F)F)C(F)(F)F)ccc1NC(=O)c1cn(C)nc1I (stereo not shown) [1-40],–,–,B or higher
COC(c1ccc(NC(=O)c2c(C(F)(F)F)nn(C)c2Cl)c(C(C)CC(C)C)c1)(C(F)(F)F)C(F)(F)F (stereo not shown) [1-104],–,–,B or higher
CCOC(c1ccc(NC(=O)c2c(C)nn(C)c2Cl)c(C(C)CC(C)C)c1)(C(F)(F)F)C(F)(F)F (stereo not shown) [1-73],–,B or higher,–

Structure (SMILES),control efficacy rating [1],insecticidal effect (mortality rating) [2],acaricidal effect (mortality rating) [3]
CC(C)CC(C)c1cc(C(C(F)(F)F)C(F)(F)F)ccc1NC(=O)c1cscc1Br (stereo not shown) [3-21],–,–,B or higher
CSc1nn(C)cc1C(=O)Nc1ccc(C(C(F)(F)F)C(F)(F)F)cc1C(C)CC(C)C (stereo not shown) [1-41],B or higher,B or higher,–
Cc1nn(C)cc1C(=O)Nc1ccc(C(C(F)(F)F)C(F)(F)F)cc1C(C)CC(C)C (stereo not shown) [1-34],–,–,B or higher
CC(C)CC(C)c1cc(C(C(F)(F)F)C(F)(F)F)ccc1NC(=O)c1ncc(Cl)cc1Cl (stereo not shown) [3-2],–,B or higher,–
Cc1nn(C)c(Cl)c1C(=O)Nc1ccc(C(C(F)(F)F)C(F)(F)F)c2ccccc12 [1-17],–,B or higher,–
Cc1nn(C)c(Cl)c1C(=O)Nc1ccc(C(F)(C(F)(F)F)C(F)(F)F)cc1C(C)C(C)C (stereo not shown) [1-21],–,B or higher,–
Cc1nn(C)c(C(=O)Nc2ccc(C(C(F)(F)F)C(F)(F)F)cc2C(C)CC(C)C)c1Cl (stereo not shown) [4-4],–,B or higher,–
CCc1nn(C)c(Cl)c1C(=O)Nc1ccc(C(C(F)(F)F)C(F)(F)F)cc1C(C)CC(C)C (stereo not shown) [1-132],–,B or higher,B or higher
CCCCC(C)c1cc(C(C(F)(F)F)C(F)(F)F)ccc1NC(=O)c1c(C)nn(C)c1Cl (stereo not shown) [1-143],–,B or higher,B or higher
CC(C)CC(C)c1cc(C(C(F)(F)F)C(F)(F)F)ccc1NC(=O)c1cnn(C)c1I (stereo not shown) [1-56],–,B or higher,–
CCCc1cc(C(C(F)(F)F)C(F)(F)F)ccc1NC(=O)c1c(C)nn(C)c1Cl [1-4],B or higher,B or higher,–
CCC(C)c1cc(C(C(F)(F)F)C(F)(F)F)ccc1NC(=O)c1c(C)nn(C)c1Cl (stereo not shown) [1-8],B or higher,–,–
CC(C)CC(C)c1cc(C(C(F)(F)F)C(F)(F)F)ccc1NC(=O)c1cnccc1C(F)(F)F (stereo not shown) [3-3],–,B or higher,–
CCn1ncc(C(=O)Nc2ccc(C(C(F)(F)F)C(F)(F)F)cc2C(C)CC(C)C)c1Cl (stereo not shown) [1-51],–,–,B or higher
Cc1nnsc1C(=O)Nc1ccc(C(F)(C(F)(F)F)C(F)(F)F)cc1C(C)CC(C)C (stereo not shown) [3-10],–,B or higher,–
Cc1c(Cl)c(C(=O)Nc2ccc(C(C(F)(F)F)C(F)(F)F)cc2C(C)CC(C)C)nn1C (stereo not shown) [4-1],B or higher,B or higher,–
Cc1nn(C)c(Cl)c1C(=O)Nc1ccc(C(C(F)(F)F)C(F)(F)F)c2c1CCCC2 [Compound No. 1-14],–,B or higher,–
Cc1nn(C)c(Cl)c1C(=O)Nc1ccc(C(C(F)(F)F)C(F)(F)F)cc1C(C)(C)C [Compound No. 1-10],–,B or higher,–
Cc1nn(C)c(C)c1C(=O)Nc1ccc(C(C(F)(F)F)C(F)(F)F)cc1C(C)CC(C)C (stereo not shown) [1-107],–,B or higher,–
CCCC(C)c1cc(C(OC)(C(F)(F)F)C(F)(F)F)ccc1NC(=O)c1c(C)nn(C)c1C (stereo not shown) [1-26],–,B or higher,B or higher
CCCC(C)c1cc(C(C(F)(F)F)C(F)(F)F)ccc1NC(=O)c1c(C)nn(C)c1C (stereo not shown) [1-25],B or higher,–,B or higher
Cc1noc(C)c1C(=O)Nc1ccc(C(C(F)(F)F)C(F)(F)F)cc1C(C)CC(C)C (stereo not shown) [3-34],B or higher,–,–
Cc1nn(C)c(F)c1C(=O)Nc1ccc(C(C(F)(F)F)C(F)(F)F)cc1C(C)CC(C)C (stereo not shown) [1-65],B or higher,B or higher,B or higher
CC(C)CC(C)c1cc(C(C(F)(F)F)C(F)(F)F)ccc1NC(=O)c1cccs1 (stereo not shown) [3-27],B or higher,–,–
